Source: ChEMBL document CHEMBL4308841, “Synthesis, in vitro antiproliferative activity, and kinase inhibitory effects of pyrazole-containing diarylureas and diarylamides” (Eur J Med Chem, 2018)

Tests used:
[1] = test system: CCRF-CEM; assay: Growth inhibition of human CCRF-CEM cells incubated for 48 hrs by sulforhodamine B assay; type: functional, cell-based
[2] = test system: HOP-62; assay: Growth inhibition of human HOP62 cells incubated for 48 hrs by sulforhodamine B assay; type: functional, cell-based; conditions: HOP-62, 48 h
[3] = test system: NCI-H460; assay: Growth inhibition of human NCI-H460 cells incubated for 48 hrs by sulforhodamine B assay; type: functional, cell-based; conditions: NCI-H460, 48 h
[4] = test system: HCT-15; assay: Growth inhibition of human HCT15 cells incubated for 48 hrs by sulforhodamine B assay; type: functional, cell-based; conditions: HCT-15, 48 h
[5] = test system: SK-MEL-5; assay: Growth inhibition of human SK-MEL-5 cells incubated for 48 hrs by sulforhodamine B assay; type: functional, cell-based; conditions: SK-MEL-5, 48 h
[6] = test system: MCF7; assay: Growth inhibition of human MCF7 cells incubated for 48 hrs by sulforhodamine B assay; type: functional, cell-based; conditions: MCF7, 48 h
[7] = test system: MDA-MB-468; assay: Growth inhibition of human MDA-MB-468 cells incubated for 48 hrs by sulforhodamine B assay; type: functional, cell-based; conditions: MDA-MB-468, 48 h
[8] = test system: A549; assay: Growth inhibition of human A549/ATCC cells assessed as cell growth at 0.01 uM incubated for 48 hrs by sulforhodamine B assay relative to control; type: functional; conditions: A549, 48 h, read-out: Activity
[9] = test system: NCI-H226; assay: Growth inhibition of human NCI-H226 cells assessed as cell growth at 0.01 uM incubated for 48 hrs by sulforhodamine B assay relative to control; type: functional; conditions: NCI-H226, 48 h, read-out: Activity
[10] = test system: M14; assay: Growth inhibition of human M14 cells assessed as cell growth at 0.01 uM incubated for 48 hrs by sulforhodamine B assay relative to control; type: functional; conditions: M14, 48 h, read-out: Activity
[11] = test system: OVCAR-4; assay: Growth inhibition of human OVCAR4 cells assessed as cell growth at 0.01 uM incubated for 48 hrs by sulforhodamine B assay relative to control; type: functional; conditions: OVCAR-4, 48 h, read-out: Activity
[12] = test system: ACHN; assay: Growth inhibition of human ACHN cells assessed as cell growth at 0.01 uM incubated for 48 hrs by sulforhodamine B assay relative to control; type: functional; conditions: read-out: Activity
[13] = test system: CAKI-1; assay: Growth inhibition of human Caki1 cells assessed as cell growth at 0.01 uM incubated for 48 hrs by sulforhodamine B assay relative to control; type: functional; conditions: CAKI-1, 48 h, read-out: Activity
[14] = test system: UO-31; assay: Growth inhibition of human UO31 cells assessed as cell growth at 0.01 uM incubated for 48 hrs by sulforhodamine B assay relative to control; type: functional; conditions: UO-31, 48 h, read-out: Activity
[15] = test system: PC-3; assay: Growth inhibition of human PC3 cells assessed as cell growth at 0.01 uM incubated for 48 hrs by sulforhodamine B assay relative to control; type: functional; conditions: PC-3, 48 h, read-out: Activity
[16] = test system: DU-145; assay: Growth inhibition of human DU145 cells assessed as cell growth at 0.01 uM incubated for 48 hrs by sulforhodamine B assay relative to control; type: functional; conditions: DU-145, 48 h, read-out: Activity
[17] = test system: Hs-578T; assay: Growth inhibition of human Hs578T cells assessed as cell growth at 0.01 uM incubated for 48 hrs by sulforhodamine B assay relative to control; type: functional; conditions: read-out: Activity
[18] = test system: SNB-75; assay: Growth inhibition of human SNB75 cells assessed as cell growth at 0.1 uM incubated for 48 hrs by sulforhodamine B assay relative to control; type: functional; conditions: SNB-75, 48 h, read-out: Activity
[19] = test system: UACC-62; assay: Growth inhibition of human UACC62 cells assessed as cell growth at 0.1 uM incubated for 48 hrs by sulforhodamine B assay relative to control; type: functional; conditions: UACC-62, 48 h, read-out: Activity
[20] = test system: 786-0; assay: Growth inhibition of human 786-0 cells assessed as cell growth at 0.1 uM incubated for 48 hrs by sulforhodamine B assay relative to control; type: functional; conditions: 786-0, 48 h, read-out: Activity
[21] = test system: PC-3; assay: Growth inhibition of human PC3 cells assessed as cell growth at 0.1 uM incubated for 48 hrs by sulforhodamine B assay relative to control; type: functional; conditions: PC-3, 48 h, read-out: Activity
[22] = test system: HL-60(TB); assay: Growth inhibition of human HL-60(TB) cells assessed as cell growth at 1 uM incubated for 48 hrs by sulforhodamine B assay relative to control; type: functional; conditions: HL-60, 48 h, read-out: Activity
[23] = test system: A549; assay: Growth inhibition of human A549/ATCC cells assessed as cell growth at 1 uM incubated for 48 hrs by sulforhodamine B assay relative to control; type: functional; conditions: A549, 48 h, read-out: Activity
[24] = test system: NCI-H460; assay: Growth inhibition of human NCI-H460 cells assessed as cell growth at 1 uM incubated for 48 hrs by sulforhodamine B assay relative to control; type: functional; conditions: NCI-H460, 48 h, read-out: Activity
[25] = test system: HCC 2998; assay: Growth inhibition of human HCC2998 cells assessed as cell growth at 1 uM incubated for 48 hrs by sulforhodamine B assay relative to control; type: functional; conditions: HCC 2998, 48 h, read-out: Activity
[26] = test system: ACHN; assay: Growth inhibition of human ACHN cells assessed as cell growth at 1 uM incubated for 48 hrs by sulforhodamine B assay relative to control; type: functional; conditions: read-out: Activity
[27] = test system: MCF7; assay: Growth inhibition of human MCF7 cells assessed as cell growth at 1 uM incubated for 48 hrs by sulforhodamine B assay relative to control; type: functional; conditions: MCF7, 48 h, read-out: Activity
[28] = test system: BT-549; assay: Growth inhibition of human BT549 cells assessed as cell growth at 1 uM incubated for 48 hrs by sulforhodamine B assay relative to control; type: functional; conditions: BT-549, 48 h, read-out: Activity
[29] = test system: NCI-H23; assay: Growth inhibition of human NCI-H23 cells assessed as cell growth at 100 uM incubated for 48 hrs by sulforhodamine B assay relative to control; type: functional; conditions: NCI-H23, 48 h, read-out: Activity
[30] = read-out: LC50 (the source's name)
[31] = read-out: pLC50 (the source's name) (converted)

Molecule `COc1cc(Cl)cc(-c2nn(-c3cccc(NC(=O)Nc4cc(C(F)(F)F)cc(C(F)(F)F)c4)c3)cc2-c2ccncc2)c1` has an IC50 [1] of 270 nM, a GI50 ([1]; read-out: GI50) of 273 nM and a CC50 [1, 30] of over 100000 nM. It also gave a TGI ([1]; read-out: TGI) of 1330 nM, a GI50 ([1]; read-out: pGI50 (converted)) of 275 nM and a CC50 [1, 31] of over 100000 nM. The TGI ([1]; read-out: pTGI (converted)) was 1350 nM, the IC50 [2] was 650 nM and the GI50 ([2]; read-out: GI50) was 648 nM. For the same molecule, the CC50 [2, 30] was 7140 nM, the TGI ([2]; read-out: TGI) was 2390 nM and the GI50 ([2]; read-out: pGI50 (converted)) was 646 nM. The CC50 [2, 31] was 7080 nM, the TGI ([2]; read-out: pTGI (converted)) was 2400 nM and the IC50 [3] was 380 nM. The GI50 ([3]; read-out: GI50) was 377 nM, the TGI ([3]; read-out: TGI) was 1760 nM and the GI50 ([3]; read-out: pGI50 (converted)) was 380 nM. The CC50 [3, 31] was 17400 nM, the TGI ([3]; read-out: pTGI (converted)) was 1780 nM and the IC50 [4] was 350 nM. For the same molecule, the GI50 ([4]; read-out: GI50) was 352 nM, the TGI ([4]; read-out: TGI) was 2250 nM and the GI50 ([4]; read-out: pGI50 (converted)) was 355 nM. It also gave a CC50 [4, 31] of 74100 nM, a TGI ([4]; read-out: pTGI (converted)) of 2820 nM and an IC50 [5] of 1140 nM. The GI50 ([5]; read-out: GI50) was 1140 nM, the CC50 [5, 30] was 50.4 nM and the TGI ([5]; read-out: TGI) was 2390 nM. The GI50 ([5]; read-out: pGI50 (converted)) was 1150 nM, the CC50 [5, 31] was 5010 nM and the TGI ([5]; read-out: pTGI (converted)) was 2400 nM. For the same molecule, the IC50 [6] was 380 nM, the GI50 ([6]; read-out: GI50) was 354 nM and the LC50 ([6]; read-out: LC50) was over 100000 nM. The TGI ([6]; read-out: TGI) was 9320 nM, the GI50 ([6]; read-out: pGI50 (converted)) was 380 nM and the LC50 ([6]; read-out: pLC50 (converted)) was over 100000 nM. The TGI ([6]; read-out: pTGI (converted)) was 9330 nM, the IC50 [7] was 340 nM and the GI50 ([7]; read-out: GI50) was 336 nM. The CC50 [7, 30] was over 100000 nM, the TGI ([7]; read-out: TGI) was 2520 nM and the GI50 ([7]; read-out: pGI50 (converted)) was 339 nM. For the same molecule, the CC50 [7, 31] was over 100000 nM, the TGI ([7]; read-out: pTGI (converted)) was 2510 nM and the growth at 0.01 µM [8] was 100%. For the same molecule, the growth at 0.01 µM [9] was 101%, the growth at 0.01 µM [10] was 96% and the growth at 0.01 µM [11] was 93%. It also gave a growth at 0.01 µM [12] of 103%, a growth at 0.01 µM [13] of 97% and a growth at 0.01 µM [14] of 79%. It also gave a growth at 0.01 µM [15] of 101%, a growth at 0.01 µM [16] of 104% and a growth at 0.01 µM [17] of 97%. For the same molecule, the growth at 0.1 µM [18] was 74%, the growth at 0.1 µM [19] was 92% and the growth at 0.1 µM [20] was 92%. It also gave a growth at 0.1 µM [21] of 91%, a growth at 1 µM [22] of 14% and a growth at 1 µM [23] of 15%. The growth at 1 µM [24] was 13%, the growth at 1 µM [25] was 38% and the growth at 1 µM [26] was 17%. For the same molecule, the growth at 1 µM [27] was 21%, the growth at 1 µM [28] was 54% and the growth at 100 µM [29] was -58%.
